Test results from patent publication US20070276141A1, “Preparation of Pharmaceutical Salts of [1,4] - Bipiperidine” (priority 2003, published 2007).

Assay: Relative stability of solid forms
Format: physicochemical
Settings: test conditions not given

Cc1ccc(S(=O)(=O)NC(=O)N2CCC(N3CCC(Oc4ccc(Cl)c(Cl)c4)CC3)CC2)cc1 [Hydrate Form A, N-[[4-(3,4-dichlorophenoxy)[1,4′-bipiperidin]-1′-yl]carbonyl]-4-methyl-benzenesulfonamide]
stability compared with other solid forms of the sodium salt: more stable than Hydrate Forms B and D and Solvated Form E
